In brackets after ≈: the same amount, converted by molar mass.
Columns and labels:
Assay type in all cases: functional
Enterococcus faecalis [1] = assay: Antimicrobial activity against vancomycin-sensitive Enterococcus faecalis ATCC 19433 by CLSI protocol based broth microdilution method
Staphylococcus aureus [2] = assay: Antimicrobial activity against methicillin-sensitive Staphylococcus aureus 8325-4 by CLSI protocol based broth microdilution method
Enterococcus faecalis [3] = assay: Antimicrobial activity against vancomycin-resistant Enterococcus faecalis ATCC 51575 by CLSI protocol based broth microdilution method
Staphylococcus aureus [4] = assay: Antimicrobial activity against methicillin-resistant Staphylococcus aureus ATCC 33591 by CLSI protocol based broth microdilution method

Structure (SMILES)	MIC (Enterococcus faecalis [1]) [µg/mL]	MIC (Staphylococcus aureus [2]) [µg/mL]	MIC (Enterococcus faecalis [3]) [µg/mL]	MIC (Staphylococcus aureus [4]) [µg/mL]
COc1cc2c(ccc3c4ccc(OC)c(OC)c4c[n+](C)c23)c(-c2cccnc2)c1OC.[Cl-]	32	8	32	32
COc1cc2c(ccc3c4ccc(OC)c(OC)c4c[n+](C)c23)c(-c2ccoc2)c1OC.[Cl-]	16	1	16	1
COc1cc2c(ccc3c4ccc(OC)c(OC)c4c[n+](C)c23)c(-c2ccc(N(C)C)cc2)c1OC.[Cl-]	8	1	8	1
COc1cc(-c2c(OC)c(OC)cc3c2ccc2c4ccc(OC)c(OC)c4c[n+](C)c32)cc(OC)c1OC.[Cl-]	32	4	32	4
COc1cc2c(ccc3c4ccc(OC)c(OC)c4c[n+](C)c23)c(C2CCCCC2)c1OC.[Cl-]	8	1	8	2
COc1cc2c(ccc3c4ccc(OC)c(OC)c4c[n+](C)c23)c(C2=CCCCC2)c1OC.[Cl-]	16	2	32	4
C=Cc1c(OC)c(OC)cc2c1ccc1c3ccc(OC)c(OC)c3c[n+](C)c21.[Cl-]	8	1	8	2
COc1cc2c(ccc3c4ccc(OC)c(OC)c4c[n+](C)c23)c(C2CC2)c1OC.[Cl-]	8	1	8	2
COc1cc2c(-c3ccc(-c4ccccc4)cc3)cc3c4ccc(OC)c(OC)c4c[n+](C)c3c2cc1OC.[Cl-]	16	0.5	16	0.5
COc1cc2c(ccc3c4ccc(OC)c(OC)c4c[n+](C)c23)c(-c2ccc(-c3ccccc3)cc2)c1OC.[Cl-]	4	0.5	8	0.5
COc1cc2c(-c3ccccc3)cc3c4ccc(OC)c(OC)c4c[n+](C)c3c2cc1OC.[Cl-]	8	1	16	2
COc1cc2ccc3c4ccc(OC)c(OC)c4c[n+](C)c3c2cc1OC.[Cl-]	> 64	32	> 64	32
COc1cc2c(-c3ccc(-c4ccccc4)cc3)cc3c4ccc5c(c4c[n+](C)c3c2cc1OC)OCO5.[Cl-]	4	2	8	2
COc1cc2c(ccc3c4ccc5c(c4c[n+](C)c23)OCO5)c(-c2ccc(-c3ccccc3)cc2)c1OC.[Cl-]	8	2	8	2
COc1cc2c(ccc3c4ccc5c(c4c[n+](C)c23)OCO5)c(-c2ccccc2)c1OC.[Cl-]	8	1	8	2
COc1cc2ccc3c4ccc5c(c4c[n+](C)c3c2cc1OC)OCO5.[Cl-]	64	32	> 64	32
COc1cc2c(ccc3c4ccc(OC)c(OC)c4c[n+](C)c23)c(-c2ccccc2)c1OC.[Cl-]	4	1	4	1
CCC[C@@H]1C[C@@H](C(=O)N[C@@H]([C@H]2O[C@H](SC)[C@H](O)[C@@H](O)[C@H]2O)[C@H](C)Cl)N(C)C1 [CLINDAMYCIN]	2 (≈ 4.71 µM)	0.03 (≈ 0.0706 µM)	> 64	> 64
CC[C@H]1OC(=O)[C@H](C)[C@@H](O[C@H]2C[C@@](C)(OC)[C@@H](O)[C@H](C)O2)[C@H](C)[C@@H](O[C@@H]2O[C@H](C)C[C@H](N(C)C)[C@H]2O)[C@](C)(O)C[C@@H](C)C(=O)[C@H](C)[C@@H](O)[C@]1(C)O [ERYTHROMYCIN]	1 (≈ 1.36 µM)	0.13 (≈ 0.177 µM)	> 64	> 64
Cc1onc(-c2ccccc2)c1C(=O)N[C@@H]1C(=O)N2[C@@H]1SC(C)(C)[C@@H]2C(=O)O [OXACILLIN]	8 (≈ 19.9 µM)	0.06 (≈ 0.149 µM)	> 64	> 64
C[n+]1cc2c3c(ccc2c2ccc4cc5c(cc4c21)OCO5)OCO3.[Cl-] [SANGUINARIUM CHLORIDE]	8	2	16	2
CN(C)[C@@H]1C(O)=C(C(N)=O)C(=O)[C@@]2(O)C(O)=C3C(=O)c4c(O)cccc4[C@@](C)(O)[C@H]3C[C@@H]12 [TETRACYCLINE]	0.5 (≈ 1.13 µM)	0.06 (≈ 0.135 µM)	> 64	64 (≈ 144 µM)
CN[C@H](CC(C)C)C(=O)N[C@H]1C(=O)N[C@@H](CC(N)=O)C(=O)N[C@H]2C(=O)N[C@H]3C(=O)N[C@H](C(=O)N[C@H](C(=O)O)c4cc(O)cc(O)c4-c4cc3ccc4O)[C@H](O)c3ccc(c(Cl)c3)Oc3cc2cc(c3O[C@@H]2O[C@H](CO)[C@@H](O)[C@H](O)[C@H]2O[C@H]2C[C@](C)(N)[C@H](O)[C@H](C)O2)Oc2ccc(cc2Cl)[C@H]1O [VANCOMYCIN]	1 (≈ 0.69 µM)		> 64	
